Test results reported in patent publication US7833967B2, “Synthetic antimicrobial polypeptides” (priority 2003, dated 2010).
Where two headings read alike, the source gives them in different places. Ends that are not written are not given here.

Experiments:
[1] = system: human red blood cells (hRBC); assay type: cell-based; conditions: red cells of human
Description: The ability of the antimicrobial peptides to lyse human red blood cells (hRBC) was analyzed. The Red Blood Cell Test assay provides a simple test system that assesses the membranolytic activity of test materials. It is suitable as a screening assay for hemolytic properties. Hemoglobin release is a useful endpoint of cell membrane integrity. Released hemoglobin is detected by measuring absorbance at 540 nm. Normally, the concentration resulting in 50% hemolysis relative to a totally lysed sample (HL50) would be calculated; however due to the low hemolytic activity of the tested peptides, this was not done in this Example. An 8% RBC suspension (12 days old) was used in the present test setup.
Since the peptides were dissolved in 0.01% acetic acid, vehicle control of the 0.01% acetic acid was included. PBS with 25%, 10%, and 5% 0.01% acetic acid was included on both plates.
To verify that a dose/response effect exists, the hemolytic activity of SDS was also tested.

E. coli TOP10 = assay: Suicide expression system (SES) growth inhibition; assay type: cell-based
[2] = Table 4, variants of SEQ ID NO:10, re-tested in the Bioscreen C
[3] = Table 5, mixed-motif library, re-tested in the Bioscreen C
[4] = Table 3, variants of SEQ ID NO:5, re-tested in the Bioscreen C
[5] = Table 1, 0.1% inducer (arabinose), pBAD/gIIIA in E. coli TOP10, Bioscreen C 37° C., end point OD450 vs control vector
[6] = Table 2, variants of SEQ ID NO:1, re-tested in the Bioscreen C

Substance	Growth inhibition (%) (E. coli TOP10; [2])	Growth inhibition (%) (E. coli TOP10; [3])	also measured
RRRPFRPPFRPPFRPPVRPPVRPPFRP [SEQ ID NO: 79]	–	–	Hemolysis (%) ([1]; 47 micrograms/ml): 16%; Hemolysis (%) ([1]; 94 micrograms/ml): 16%; Hemolysis (%) ([1]; 188 micrograms/ml): 17%; Hemolysis (%) ([1]; 375 micrograms/ml): 17%
RRRPRPVPRPFPRPVPRPLPRPFPRPF [SEQ ID NO: 61]	–	–	Hemolysis (%) ([1]; 47 micrograms/ml): 16%; Hemolysis (%) ([1]; 94 micrograms/ml): 16%; Hemolysis (%) ([1]; 188 micrograms/ml): 16%; Hemolysis (%) ([1]; 375 micrograms/ml): 17%
165 (RRRPFRPPLRPPFRPPVRPPLRPPVRP; Synthetic antimicrobial peptide) [compound 165]	65	–	–
317 (RRRTRHVFARPVPVRPPPRVPRPFPVRP; Synthetic antimicrobial peptide) [compound 317]	–	95	–
80 (RRRPFRPPFRPPIRPPVRPPVRPPFRP; Synthetic antimicrobial peptide) [compound 80]	81	–	–
35 (RRRPRPFPRPFPRPFPRPFPRPIPRPF; Synthetic antimicrobial peptide) [compound 35]	–	–	Growth inhibition (%) (E. coli TOP10; [4]): 78%
120 (RRRPLRPPFRPPFRPPFRPPVRPPIRP; Synthetic antimicrobial peptide) [compound 120]	68	–	–
145 (RRRPLRPPVRPPFRPPFRPPLRPPFRP; Synthetic antimicrobial peptide) [compound 145]	59	–	–
280 (RRRPPRLPRPLPLRPPPRFPRPFPVRP; Synthetic antimicrobial peptide) [compound 280]	–	97	–
91 (RRRPFRPPVRPPIRPPVRPPFRPPVRP; Synthetic antimicrobial peptide) [compound 91]	52	–	–
140 (RRRPIRPPIRPPFRPPVRPPVRPPFRP; Synthetic antimicrobial peptide) [compound 140]	70	–	–
190 (RRRPFRPPIRPPFRPPIRPPFRPPFRP; Synthetic antimicrobial peptide) [compound 190]	83	–	–
7 (RRRPFPRPFPRPFPRPFPRPFPRPFPR; Synthetic antimicrobial peptide) [compound 7]	–	–	Growth inhibition (%) (E. coli TOP10; [5]): 39%
261 (RRRPPRLPRPIPVRPPPRIPRPVPFRP; Synthetic antimicrobial peptide) [compound 261]	–	92	–
3 (RRRRFPPRFPPRFPPRFPPRFPPRFPP; Synthetic antimicrobial peptide) [compound 3]	–	–	Growth inhibition (%) (E. coli TOP10; [5]): 43%
6 (RRRRPFPRPFPRPFPRPFPRPFPRPFP; Synthetic antimicrobial peptide) [compound 6]	–	–	Growth inhibition (%) (E. coli TOP10; [5]): 57%
249 (RRRPPRLPRPFPVRPPPRVPRPVPIRP; Synthetic antimicrobial peptide) [compound 249]	–	93	–
56 (RRRPRPIPRPFPRPFPRPFPRPFPRPI; Synthetic antimicrobial peptide) [compound 56]	–	–	Growth inhibition (%) (E. coli TOP10; [4]): 51%
293 (RRRPPRLPRPVPFRPPPRFPRPFPIRP; Synthetic antimicrobial peptide) [compound 293]	–	93	–

Substance	Growth inhibition (%) (E. coli TOP10; [2])	Growth inhibition (%) (E. coli TOP10; [3])	also measured
RRRPPRLPRPFPVRPPPRFPRPFPLRP [SEQ ID NO: 239]	–	–	Hemolysis (%) ([1]; 47 micrograms/ml): 19%; Hemolysis (%) ([1]; 94 micrograms/ml): 16%; Hemolysis (%) ([1]; 188 micrograms/ml): 16%; Hemolysis (%) ([1]; 375 micrograms/ml): 18%
303 (RRRPPRLPRPVPLRPPPRVPRPLPIRP; Synthetic antimicrobial peptide) [compound 303]	–	91	–
54 (RRRPRPFPRPVPRPVPRPFPRPIPRPL; Synthetic antimicrobial peptide) [compound 54]	–	–	Growth inhibition (%) (E. coli TOP10; [4]): 65%
134 (RRRPFRPPFRPPFRPPVRPPLRPPVRP; Synthetic antimicrobial peptide) [compound 134]	68	–	–
310 (RRRPPRVPRPFPIRPPPRVPRPVPVRP; Synthetic antimicrobial peptide) [compound 310]	–	93	–
194 (RRRPLRPPFRPPFRPPIRPPFRPPFRP; Synthetic antimicrobial peptide) [compound 194]	81	–	–
250 (RRRPPRLPRPIPFRPPPRIPRPIPVRP; Synthetic antimicrobial peptide) [compound 250]	–	96	–
242 (RRRPPRLPRPFPVRPPPRLPRPVPFRP; Synthetic antimicrobial peptide) [compound 242]	–	90	–
238 (RRRPPRLPRPFPVRPPPRFPRPFPIRP; Synthetic antimicrobial peptide) [compound 238]	–	95	–
304 (RRRPPRLPRPVPVRPPPRFPRPVPIRP; Synthetic antimicrobial peptide) [compound 304]	–	90	–
233 (RRRPPRLPRPFPLRPPPRLPRPLPVRP; Synthetic antimicrobial peptide) [compound 233]	–	91	–
46 (RRRPRPFPRPFPRPVPRPFPRPFPRPI; Synthetic antimicrobial peptide) [compound 46]	–	–	Growth inhibition (%) (E. coli TOP10; [4]): 84%
236 (RRRPPRLPRPFPLRPPPRVPRPVPFRP; Synthetic antimicrobial peptide) [compound 236]	–	91	–
34 (RRRPRPFPRPFPRPFPRPFPRPFPRPL; Synthetic antimicrobial peptide) [compound 34]	–	–	Growth inhibition (%) (E. coli TOP10; [4]): 74%
23 (RRRPPRLPPRFPPRFPPRVPPRVPPRF; Synthetic antimicrobial peptide) [compound 23]	–	–	Growth inhibition (%) (E. coli TOP10; [6]): 82%
156 (RRRPFRPPLRPPFRPPFRPPIRPPFRP; Synthetic antimicrobial peptide) [compound 156]	67	–	–
16 (RRRPPRIPPRFPPRVPPRFPPRVPPRV; Synthetic antimicrobial peptide) [compound 16]	–	–	Growth inhibition (%) (E. coli TOP10; [6]): 98%
144 (RRRPIRPPLRPPVRPPVRPPFRPPFRP; Synthetic antimicrobial peptide) [compound 144]	64	–	–
78 (RRRPLRPPFRPPFRPPFRPPIRPPVRP; Synthetic antimicrobial peptide) [compound 78]	83	–	–
